Measured values: the NIST ThermoML archive (doi:10.1021/acs.jced.7b00712)
Numbers after ± are expanded uncertainties.

Details: Fluid (supercritical or subcritical phases), Brillouin light scattering

CC(C)CC(C)(C)C [2,2,4-trimethylpentane]
Details | speed of sound [m/s]
543.74 K, 6000 kPa | 314.4 ± 4.6
544.07 K, 10000 kPa | 409.3 ± 5.6
544.08 K, 12000 kPa | 448.4 ± 6
547.77 K, 3000 kPa | 135.2 ± 7.2
548.38 K, 4000 kPa | 216.1 ± 6
548.79 K, 5000 kPa | 262.4 ± 4.9
548.93 K, 12000 kPa | 439.8 ± 5.9
548.94 K, 6000 kPa | 301.9 ± 4.5
549.02 K, 10000 kPa | 399.6 ± 5.5
552.48 K, 3000 kPa | 103.8 ± 6.9
553.35 K, 4000 kPa | 194.1 ± 6.5
553.8 K, 5000 kPa | 247.6 ± 5
553.96 K, 6000 kPa | 286.4 ± 4.4
554.24 K, 12000 kPa | 430.8 ± 5.8
554.27 K, 10000 kPa | 392.6 ± 5.5
558.01 K, 3000 kPa | 97.9 ± 5.6
558.52 K, 10000 kPa | 386.7 ± 5.4
558.54 K, 12000 kPa | 426 ± 5.7
559.12 K, 6000 kPa | 272.8 ± 4.8
559.16 K, 5000 kPa | 232.4 ± 5
559.18 K, 4000 kPa | 172.1 ± 6
563.28 K, 4000 kPa | 154.4 ± 5.4
564.27 K, 5000 kPa | 214.5 ± 5.1
564.68 K, 12000 kPa | 415.3 ± 5.6
564.81 K, 10000 kPa | 374.5 ± 5.3
564.85 K, 6000 kPa | 257.3 ± 4.2
567.24 K, 3000 kPa | 109.9 ± 2.6
568.08 K, 4000 kPa | 137.3 ± 4.3
569.24 K, 5000 kPa | 201.2 ± 5.2
569.81 K, 12000 kPa | 404.7 ± 5.5
570.06 K, 6000 kPa | 244.3 ± 4.1
570.54 K, 10000 kPa | 362.4 ± 5.2
570.76 K, 3000 kPa | 112.7 ± 1.6
573.32 K, 4000 kPa | 122.1 ± 5.4
574.23 K, 5000 kPa | 187 ± 5.2
574.7 K, 6000 kPa | 233 ± 4
574.8 K, 12000 kPa | 398.5 ± 5.5
575.07 K, 10000 kPa | 354 ± 5.1
576.9 K, 3000 kPa | 117.3 ± 1.6
578.09 K, 4000 kPa | 114.9 ± 2.8
579 K, 5000 kPa | 173.2 ± 5
579.62 K, 6000 kPa | 222.1 ± 3.9
580.26 K, 12000 kPa | 388.5 ± 5.4
580.32 K, 10000 kPa | 343.6 ± 5
582.97 K, 4000 kPa | 114.7 ± 2.2
583.34 K, 3000 kPa | 121.9 ± 1.7
584.13 K, 5000 kPa | 161.6 ± 4.5
584.82 K, 6000 kPa | 208.9 ± 3.9
585.19 K, 12000 kPa | 379.7 ± 5.2
585.35 K, 10000 kPa | 337.5 ± 5
586.96 K, 3000 kPa | 125 ± 1.8
587.1 K, 4000 kPa | 116 ± 1.8
588.18 K, 5000 kPa | 151.1 ± 4
588.98 K, 6000 kPa | 199.3 ± 3.8
589.39 K, 12000 kPa | 374.8 ± 5.2
589.65 K, 10000 kPa | 331.2 ± 4.9
592.49 K, 4000 kPa | 117.9 ± 1.6
592.79 K, 3000 kPa | 130.8 ± 2
593.39 K, 5000 kPa | 140.6 ± 3.6
594.09 K, 6000 kPa | 191.7 ± 3.7
594.93 K, 12000 kPa | 363.8 ± 5.1
595.15 K, 10000 kPa | 318.7 ± 4.8
597.57 K, 4000 kPa | 119.2 ± 1.6
597.98 K, 3000 kPa | 136.1 ± 2.2
598.54 K, 5000 kPa | 135.1 ± 3.2
599.18 K, 6000 kPa | 184.6 ± 3.6
600.35 K, 10000 kPa | 311.6 ± 4.7
600.58 K, 12000 kPa | 356.1 ± 5
602.34 K, 4000 kPa | 121.2 ± 1.6
602.56 K, 3000 kPa | 141.1 ± 2.4
603.22 K, 5000 kPa | 132.5 ± 2.8
604.02 K, 6000 kPa | 175.1 ± 3.5
604.68 K, 12000 kPa | 350.2 ± 4.9
605.01 K, 10000 kPa | 304.3 ± 4.6
607.09 K, 4000 kPa | 124.3 ± 1.7
607.67 K, 5000 kPa | 131 ± 2.4
607.97 K, 3000 kPa | 145.8 ± 2.5
608.43 K, 6000 kPa | 167.7 ± 3.4
609.5 K, 12000 kPa | 342.6 ± 4.8
609.62 K, 10000 kPa | 295.9 ± 4.5
612.44 K, 4000 kPa | 129.9 ± 1.8
612.74 K, 5000 kPa | 131.9 ± 2.2
613.31 K, 3000 kPa | 150.4 ± 2.5
613.49 K, 6000 kPa | 164.3 ± 3.3
614.69 K, 10000 kPa | 286.8 ± 4.4
614.9 K, 12000 kPa | 336.6 ± 4.8
617.81 K, 4000 kPa | 134.8 ± 1.9
618.08 K, 5000 kPa | 135 ± 2
618.6 K, 6000 kPa | 159.9 ± 3.2
618.84 K, 3000 kPa | 154.9 ± 2.6
619.6 K, 12000 kPa | 329.3 ± 4.7
619.8 K, 10000 kPa | 281.3 ± 4.3
622.75 K, 4000 kPa | 139 ± 2
622.82 K, 5000 kPa | 137.2 ± 1.9
623.43 K, 6000 kPa | 156.1 ± 3.1
623.75 K, 3000 kPa | 159.5 ± 2.6
624.61 K, 12000 kPa | 321.5 ± 4.6
624.7 K, 10000 kPa | 276.4 ± 4.3
627.69 K, 5000 kPa | 141.2 ± 1.9
628.07 K, 4000 kPa | 145.5 ± 2.1
628.11 K, 6000 kPa | 153.4 ± 2.9
629.13 K, 10000 kPa | 269.4 ± 4.2
629.2 K, 12000 kPa | 316.9 ± 4.5
629.42 K, 3000 kPa | 164 ± 2.5
631.25 K, 5000 kPa | 143.4 ± 1.9
631.51 K, 6000 kPa | 156 ± 2.3
632.19 K, 4000 kPa | 148.1 ± 2.1
633.71 K, 3000 kPa | 166.1 ± 2.6
